Experimental data: PubChem BioAssay (NCI)
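Values below derive from 48-hour exposures of cells grown in 96-well plates, with endpoints linearly interpolated between the two concentrations bracketing the appropriate inhibition level. Definition used: TGI = concentration required for complete inhibition of growth.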

System: RXF-631 renal
Assay: NCI tumour cell line growth inhibition, 48 h

| Structure (SMILES) | TGI [µM] |
| --- | --- |
| COc1cc(C(=O)N[C@H]2CCc3cc(OC)c(OC)c(OC)c3-c3ccc(SC)c(=O)cc32)cc(OC)c1OC | > 100 |
| COc1cccc(-c2cc(=O)c3cc4c(cc3[nH]2)OCO4)c1 | > 100 |
